From US9636327B2 (University Health Network, Toronto General Hospital, priority 2013, dated 2017)

Tests used:
[1] = more water-soluble than dantrolene; cited from earlier work
isolated rabbit hearts = test: Ex-vivo rabbit model: Langendorff-perfused isolated hearts, VF induction and optical mapping of calcium alternans; design: species or system New-Zealand white rabbits
Procedure: New-Zealand white rabbits with weight ranging from 2.4-4.5 Kg were used. (n=14). All animals were anesthetized with sodium pentobarbital (35 mg/kg), aorta was attached to the Langendorff apparatus and retrogradely perfused with 37.5° C. oxygenated Tyrode solution with albumin 80 mg/L in deionized water equilibrated with 95% 02 and 5% CO2. Simultaneous optical mapping of epicardial surface of isolated hearts for Calcium and Voltage was performed using 0.5 mg Rhod2-AM and 10 microM/1 RH237. Blebbistatin at 10 microM/L was added to Tyrode solution to block cardiac contractions.
VF was induced by burst pacing for 30 sec at 60 Hz and 10V and hearts were continuously perfused during VF. […] VF was monitored for 4 min and then defibrillated at 5 J. Five minutes after termination of first VF episode, 4 more episodes of fibrillation-defibrillation were tried on each heart with 5 min recovery time (in sinus rhythm) in between. VF duration for each VF episode was 4 min (or shorter in case of self-termination) followed by defibrillation. […] Additionally, hearts were paced at various rates of 250, 220, 200, 180 and 160 msec Cycle Length (CL) for 30 seconds after first and second VF episodes. Simultaneous optical mapping of Calcium and voltage was performed during pacing to evaluate for Calcium Alternans. Calcium alternans was defined as beat-to-beat difference of more than 10% in Calcium wave amplitude. At the end of the experiment, LV tissue from the LV free wall was removed and frozen in liquid Nitrogen for further western blot analysis.
P<0.05 was considered statistically significant.

Yorkshire pigs = test: In-vivo swine model of VF cardiac arrest with CPR and defibrillation;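 also: VF induced by burst pacing in anesthetized pigs, left untreated 4 min, then 3 min CPR and defibrillation, with ECG and aortic pressure monitored for 30 min afterwards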
From the text: Previously healthy 10-12 weeks-old Yorkshire pigs (n=24) were used. […] Following endotracheal intubation anesthesia was maintained by continuous administration of Isoflurane (2% mixed with 100% O2) and ventilated (Ohio ventilator R.A.E. Technologies, Inc. Ontario) at 21 breaths/min and was continuously measured using CO2MO Plus monitoring system (Novametrix Medical Systems). Animals were continuously monitored using Lifepak 12 Medtronic-PhysioControl defibrillator for ECG monitoring. Two self-adhesive defibrillation pads were attached to the lateral aspects of the chest wall for defibrillation. (Medtronics Inc, Redmond, Wash.)
Femoral arteries and veins were catheterized and an EP catheter (EP Technologies Inc, Sunnyvale, Calif.) was placed in the right ventricle to enable pacing and to induce VF. Two micro manometer-tipped Millar catheters (Millar Instruments, Inc, Houston, Tex.) were placed in Abdominal Aorta and right atrium. Pacing catheter was further attached to a custom designed signal acquisition and processing system. (Electrophysiological Recording system-Acqui2, Toronto, ON) The pressure and ECG signals were recorded at 1000 Hz with a 0.05 Hz high pass and 500 Hz low pass filter by custom software. (Acqui2, Cartesian Labs)
After initial monitoring and stabilization, VF was induced by burst pacing (10V of 60 Hz current for 2 seconds) and left untreated for 4 minutes. Then, chest compression was started using a pneumatic device (Lucas, Jolife AB, Lund, Sweden) at 100 compressions/min and manual ventilation at 6 breath/min using 5-6 liters/min of 100% O2 with an AMBU bag was performed. CPR was continued for 3 minutes with no interruption of chest compressions. […] After successful defibrillation, animals were monitored for 30 min to assess the outcome and occurrence of Refibrillations. At the end, survivors were sacrificed by inducing VF. If animals could not be defibrillated during refibrillation, the energy level was increased in a stepwise fashion to up to 4 attempts at 360 J.
Refibrillation was defined as recurrence of VF after at least 5 beats of a non-VF rhythm following defibrillation. Survival was determined based on presence of sBP≧30 mmHg in abdominal aorta and normal sinus rhythm at the end of 30 min observation period. Time to Return of Spontaneous Circulation (ROSC) was calculated from the onset of CPR until sBP≧60 mmHg was attained in abdominal aorta after successful defibrillation. Sustained ROSC was defined as maintenance of sBP≧60 mmHg by the end of 30-min observation post-defibrillation. Ventricular ERP was measured at baseline and at 20 minutes into recovery (if any) via the S1-S2 stimulation method. Surface ECG signals at 4 min of VF and at 7 min of VF were extracted to analyze for VF organization. A Spatio-temporal index of VF organization (Regularity Index (RI)) was used. RI was defined as the ratio of the power at the Dominant Frequency (DF) to the total power. […] The total power was calculated as the sums over the range of 5-15 Hz. Values vary between 0 (disorganized) to 1 (highly organized).
Mean time to ROSC, mean time to successful defibrillation, onset of refibrillation and regularity index of VF at different time points were analyzed using unpaired student t-test. Repeated-measures ANOVA was used to compare continuous variables between groups at different time points. Protein phosphorylation analysis and comparison of ordinal variables (number of refibrillations) were performed using Wilcoxon Mann-Whitney test. […] P<0.05 was considered statistically significant. All statistical analysis were performed using Stata 11.1 (Stata Corp LP)

[2] = 2 mg/kg bolus, defibrillation energy
[3] = 2 mg/kg bolus, post-defibrillation

O=C1CN(/N=C/c2ncc(-c3ccc(Br)cc3)o2)C(=O)N1 [Azumolene]
water solubility relative to dantrolene [1]: 30 times

O=C1CN(N=Cc2ccc(-c3ccc([N+](=O)[O-])cc3)o2)C(=O)N1.[Na] [Dantrolene, 1-[[[5-(4-nitrophenyl)-2-furanyl]methylene]amino]-2,4-imidazolidinedione sodium salt]
Incidence of CaA-ALT after second VF (isolated rabbit hearts; Dantrolene 10-20 μM/l): approximately 12.5%
mean duration of all VF episodes combined (isolated rabbit hearts; Dantrolene 10-20 μM/l): about 194±234 sec
successful attempts to induce VF (VF lasting ≧10 sec) (isolated rabbit hearts; Dantrolene 10-20 μM/l infused at 1 min of first VF, 12 of 31 attempts): 38.7%
VF episodes sustained >60 sec (isolated rabbit hearts; Dantrolene 10-20 μM/l, 7 of 31 attempts): 22.58%
alternans threshold (isolated rabbit hearts; Dantrolene 10-20 μM/l, pacing cycle length): about 186±11 msec CL
Number of Refibrillations (Yorkshire pigs; 2 mg/kg bolus): 0.6 ± 0.4
Number of shocks to terminate refibrillations (Yorkshire pigs; 2 mg/kg bolus): 1 ± 0
Sinus rhythm immediately post-defibrillation (Yorkshire pigs; 2 mg/kg bolus): approximately 90.91%
Survival after Refibrillation (Yorkshire pigs; 2 mg/kg bolus): 100% (3)
Time to ROSC calculated from immediately post-defibrillation (Yorkshire pigs; 2 mg/kg bolus): about 13±4 sec
Time to onset of Refibrillation (Yorkshire pigs; 2 mg/kg bolus): 51 ± 9 s
animals requiring energy levels ≦200J for defibrillating the initial VF (Yorkshire pigs; 2 mg/kg bolus): Ninety
sBP peak at 5 min post-defibrillation (Yorkshire pigs; 2 mg/kg bolus): approximately 98±17 mmHg
Final Rhythm PEA (Yorkshire pigs; 2 mg/kg bolus at onset of CPR): 0%
Final Rhythm Sinus (Yorkshire pigs; 2 mg/kg bolus at onset of CPR): 90.91%
Final Rhythm VF (or VrF) (Yorkshire pigs; 2 mg/kg bolus at onset of CPR): 9.09%
ROSC (at 5 min post-defibrillation) (Yorkshire pigs; 2 mg/kg bolus at onset of CPR): 90.91%
post-defibrillation VERP (Yorkshire pigs; 2 mg/kg bolus, 20 minutes into recovery): about 215±9 msec
Refibrillation Incidence (Yorkshire pigs; 2 mg/kg bolus, 30 min monitoring after defibrillation): 36.36%
Maximum energy level (Yorkshire pigs; [2]): 187 ± 62 J
Total energy level (Yorkshire pigs; [2]): 366 ± 139
Total time in VF Including VrF (refibrillation) (Yorkshire pigs; 2 mg/kg bolus, initial VF plus all refibrillations): 478 ± 19 s
Total time in VF Excluding VrF (Yorkshire pigs; 2 mg/kg bolus, initial VF without refibrillations): 466 ± 18 s
QT interval post-defibrillation (Yorkshire pigs; [3]): about 334±83 msec
Tp-Tn (repolarization dispersion) post-defibrillation (Yorkshire pigs; [3]): about 84±22 msec
Number of shocks (>2 attempts) (Yorkshire pigs; 2 mg/kg bolus, share of animals needing >2 attempts): 9.09%
Refibrillation duration (Yorkshire pigs; 2 mg/kg bolus, sodium salt, 2 mg/kg): 32 ± 6 s
mean dBP at the end of experiment (Yorkshire pigs; 2 mg/kg bolus, survivors): about 61±10 mmHg
mean sBP at the end of experiment (Yorkshire pigs; 2 mg/kg bolus, survivors): about 84±11 mmHg
Successful defibrillation (Yorkshire pigs; Dantrolene Sodium 2 mg/kg bolus at onset of CPR after 4 min untreated VF): 100%
QT interval at baseline (Yorkshire pigs; Dantrolene group, baseline): about 432±48 msec
Tp-Tn (repolarization dispersion) at baseline (Yorkshire pigs; Dantrolene group, baseline): about 68±23 msec
